Experimental data published in ChEMBL document CHEMBL1201862, “PubChem BioAssay data set” (2004).
Calls of active or inactive are those of the source.

Tests used:
[1] = inhibitors of HIV Env-driven cell fusion, dose response, cherry-pick (AID 652057); type: functional, cell-based
[2] = ZM109 Env clade C HIV-1 fusion inhibitors, dose response, HeLa effector, CEM target cells, luciferase, cherry-pick (AID 652058); type: functional, cell-based
[3] = inhibitors of clade B AD8 Env fusion, dose response, cell-based, cherry-pick (AID 652062); type: functional;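 note: luciferase signal from cell-cell fusion driven by HIV-1 clade B AD8 Env; potency is for inhibitors of fusion seen as a drop in luminescence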
[4] = system: HeLa; test: HeLa cell cytotoxicity, dose response, cytotoxicity control, ATP luminescence, cherry-pick samples (AID 687004); type: functional, cell-based; details: Homo sapiens
[5] = inhibitors of PGC1a acetylation in cells, dose response, cell-based, cherry-picked samples (AID 720514); type: functional;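 note: potency may reflect raised or lowered acetylation signal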
[6] = P. falciparum 3D7-ScDHODH growth inhibitors, dose response, SYBR Green, dry powder samples (AID 1159570); type: functional, cell-based;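 note: parasite growth measured after 72 hours of compound exposure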
[7] = HepG2 cell cytotoxicity, dose response, cytotoxicity control, plate reader, dry powder samples (AID 1159569); type: functional, cell-based;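 note: inhibitor potency with signal falling toward the positive control level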
[8] = P. falciparum Dd2 growth inhibitors, dose response, SYBR Green, cherry-picked samples (AID 1159567); type: functional, cell-based
[9] = P. falciparum Dd2 growth inhibitors, dose response, SYBR Green, dry powder samples (AID 1159566); type: functional, cell-based;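 note: potency for growth inhibition with lower SYBR green DNA signal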
[10] = P. falciparum ATP4 D1247Y mutant growth inhibitors, dose response, NITD609-resistant line, SYBR Green, dry powder (AID 1159571); type: functional, cell-based;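 note: parasites synchronized at ring stage by sorbitol before testing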
[11] = cells; type: functional, cell-based
[12] = molecular target: T1, Trace amine-associated receptor 1 (Homo sapiens, UniProt Q96RJ0); test: Fluorescence-based cell-based high throughput dose response assay to identify agonists of the human trace amine associated receptor 1 (TAAR1).; type: functional
T1 sequence (Q96RJ0 whole entry): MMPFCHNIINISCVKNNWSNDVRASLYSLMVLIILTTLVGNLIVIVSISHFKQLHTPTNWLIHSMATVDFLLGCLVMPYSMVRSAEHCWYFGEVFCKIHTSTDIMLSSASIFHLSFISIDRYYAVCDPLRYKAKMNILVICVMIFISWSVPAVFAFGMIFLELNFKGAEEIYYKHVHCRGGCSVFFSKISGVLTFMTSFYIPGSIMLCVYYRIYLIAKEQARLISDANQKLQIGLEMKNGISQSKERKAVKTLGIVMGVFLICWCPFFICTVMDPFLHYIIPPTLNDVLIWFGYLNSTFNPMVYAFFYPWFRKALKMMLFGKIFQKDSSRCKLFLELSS

[13] = molecular target: T1, Trace amine-associated receptor 1; test: Counterscreen for agonists of the human trace amine associated receptor 1 (hTAAR1): Fluorescence-based cell-based high throughput dose response assay to identify hTAAR1 agonist that also desensitize TAAR1 receptor response.; type: functional
[14] = cells; type: functional, cell-based; remark: listed apart in the source
[15] = molecular target: T2, Galanin receptor type 3 (Homo sapiens, UniProt O60755); test: Fluorescence-based cell-based primary high throughput dose response assay to identify antagonists of the Galanin Receptor 3 (GalR3).; type: functional
T2 sequence (O60755 whole entry): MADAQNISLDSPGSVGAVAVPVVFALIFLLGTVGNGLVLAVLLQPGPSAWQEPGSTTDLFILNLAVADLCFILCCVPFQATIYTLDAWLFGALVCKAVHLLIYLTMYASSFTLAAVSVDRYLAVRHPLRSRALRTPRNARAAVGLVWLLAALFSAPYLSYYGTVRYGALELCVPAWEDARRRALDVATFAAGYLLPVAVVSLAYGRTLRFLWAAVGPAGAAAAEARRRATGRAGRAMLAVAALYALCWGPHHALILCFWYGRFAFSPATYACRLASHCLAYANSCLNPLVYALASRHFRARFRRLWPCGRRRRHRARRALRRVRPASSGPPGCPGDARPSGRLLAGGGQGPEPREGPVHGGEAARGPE

[16] = cells; type: functional, cell-based; details: HEK-CNG
[17] = Luminescence-based cell-based high throughput dose response assay to identify activators of the DAF-12 from the parasite S. stercoralis (ssDAF-12).; type: functional
[18] = molecular target: T3, Oxysterols receptor LXR-beta (Homo sapiens, UniProt P55055); test: LXR agonists, Gal4 luciferase reporter, dose response, counter-screen for ssDAF-12 agonist project, cell-based, luminescence, HEK293, S. stercoralis campaign (AID 720737); type: functional; details: read-out: IC50 (the source's name)
T3 sequence (P55055 whole entry): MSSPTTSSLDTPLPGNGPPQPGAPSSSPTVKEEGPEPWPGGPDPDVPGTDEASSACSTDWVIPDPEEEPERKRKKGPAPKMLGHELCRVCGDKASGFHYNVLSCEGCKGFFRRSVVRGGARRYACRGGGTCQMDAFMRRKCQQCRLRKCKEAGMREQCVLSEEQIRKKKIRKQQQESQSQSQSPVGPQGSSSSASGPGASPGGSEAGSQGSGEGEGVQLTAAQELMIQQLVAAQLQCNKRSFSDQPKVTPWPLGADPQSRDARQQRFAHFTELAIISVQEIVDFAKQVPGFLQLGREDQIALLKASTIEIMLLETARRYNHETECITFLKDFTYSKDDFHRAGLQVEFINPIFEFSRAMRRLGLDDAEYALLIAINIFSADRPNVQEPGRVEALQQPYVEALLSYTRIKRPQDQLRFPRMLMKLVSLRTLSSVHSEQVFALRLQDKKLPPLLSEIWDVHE

[19] = molecular target: Mitogen-activated protein kinase 10 (Homo sapiens, UniProt P53779); test: Dose response biochemical screening assay for inhibitors of c-Jun N-Terminal Kinase 3 (JNK3). [Related pubchem assays: 746 ]
[20] = molecular target: T4, fMet-Leu-Phe receptor (Homo sapiens, UniProt P21462); test: FPR ligands, dose response (AID 519); type: functional
T4 sequence (P21462 whole entry): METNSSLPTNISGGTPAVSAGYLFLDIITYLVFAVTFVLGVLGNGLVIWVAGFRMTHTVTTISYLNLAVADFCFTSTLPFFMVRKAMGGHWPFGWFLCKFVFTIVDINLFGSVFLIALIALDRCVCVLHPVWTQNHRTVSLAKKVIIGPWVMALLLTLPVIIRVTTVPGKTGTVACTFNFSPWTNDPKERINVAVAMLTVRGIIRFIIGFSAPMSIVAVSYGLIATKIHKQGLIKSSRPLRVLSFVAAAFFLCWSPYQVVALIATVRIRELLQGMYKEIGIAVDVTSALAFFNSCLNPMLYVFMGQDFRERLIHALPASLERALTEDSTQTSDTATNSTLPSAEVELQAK

[21] = A Cell Based Secondary Assay To Explore Cytotoxicity of Compounds that Sensitize Mycobacterium Tuberculosis to Beta-Lactam Antibiotics.; type: functional
[22] = Artemis endonuclease inhibitor potency, dose response, biochemical, fluorescence intensity (AID 720701); type: functional;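 note: Artemis endonuclease enzyme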

Mitogen-activated protein kinase 10, sequence (P53779 whole entry): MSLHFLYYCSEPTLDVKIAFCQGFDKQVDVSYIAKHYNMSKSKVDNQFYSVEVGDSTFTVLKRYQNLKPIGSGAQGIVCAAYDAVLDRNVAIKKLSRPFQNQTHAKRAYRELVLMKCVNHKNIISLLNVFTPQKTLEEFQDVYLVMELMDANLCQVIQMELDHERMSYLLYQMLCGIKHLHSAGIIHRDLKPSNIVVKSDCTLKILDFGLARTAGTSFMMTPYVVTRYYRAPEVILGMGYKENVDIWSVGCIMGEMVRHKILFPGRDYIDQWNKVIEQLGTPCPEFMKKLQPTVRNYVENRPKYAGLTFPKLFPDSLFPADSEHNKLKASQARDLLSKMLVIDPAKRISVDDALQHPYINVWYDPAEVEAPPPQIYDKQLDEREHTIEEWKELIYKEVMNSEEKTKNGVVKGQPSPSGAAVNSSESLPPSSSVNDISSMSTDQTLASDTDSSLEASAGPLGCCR

With `C[C@H]1CN([C@@H](C)CO)C(=O)Cc2cc(NC(=O)Nc3ccccc3)ccc2O[C@H]1CN(C)S(=O)(=O)c1cccs1` the AC50 [1] was 1.36 µM (active), the AC50 [2] was 1.55 µM (active) and the AC50 [3] was 8.52 µM (active).

With `CCCNC(=O)C[C@@H]1CC[C@@H]2[C@H](COc3ccc(NC(=O)CCC)cc3C(=O)N2C)O1` the AC50 [4] was 9.9 µM (active).

For `C[C@H]1CN([C@@H](C)CO)C(=O)c2cccc(NC(=O)Nc3ccc(C(F)(F)F)cc3)c2O[C@H]1CN(C)C(=O)Nc1cccc2ccccc12`, the AC50 [5] was 8.85 µM (active).

In the case of `COc1ccc2c3c([nH]c2c1)[C@H](CO)N(C(=O)Nc1ccc(F)cc1)CC31CCN(S(=O)(=O)c2cccc(F)c2)CC1`, the AC50 [6] is reported as 1.22 µM (active), the AC50 [7] is reported as 22 µM (active) and the AC50 [8] is reported as 0.883 µM (active). The AC50 [9] was 0.751 µM (active) and the AC50 [10] was 0.103 µM (active).

In the case of `COC(=O)C1=C(C)N(Cc2ccc(Br)cc2)C(=S)NC1c1cccc(Br)c1` (configuration not stated), the AC50 [4] is reported as 38.1 µM (active).

In the case of `COc1ccc(/C=N/CC2COc3ccccc3O2)cc1OC` (configuration not stated), the IC50 [11] is reported as > 29.9 µM (inactive), the EC50 [12] is reported as 1.44 µM (active) and the IC50 [13] is reported as 18.9 µM (inactive). The EC50 [14] was > 29.9 µM (inactive).

For `N#Cc1nc(N2CCCC2)nc(N2CCCC2)n1`, the IC50 [15] was 1.81 µM (active) and the EC50 [16] was > 29.9 µM (inactive).

With `CCNC1=NN=C(c2c[nH]c3ccccc23)CS1` the IC50 [17] was > 67.6 µM (inactive) and the EC50 [18] was > 67.6 µM (inactive).

In the case of `Cc1nnc(SCC(=O)NCCC2=CCCCC2)nc1O`, the IC50 [11] is reported as > 29.9 µM (inactive), the EC50 [12] is reported as 1.25 µM (active) and the IC50 [13] is reported as 7.22 µM (active). The EC50 [14] was > 29.9 µM (inactive).

For `COCCN1Cc2cccc(C(=O)NCc3ccc4c(c3)OCO4)c2C1=O`, the IC50 [19] was > 31 µM (not active) and the Ki [20] was > 66.7 µM (inactive).

For `c1ccc(-c2ccc(C3=Nn4c(Cn5nnc6ccccc65)nnc4SC3)cc2)cc1`, the CC50 [21] was > 40 µM (active) and the IC50 [22] was > 20 µM (inactive).
